This passage reports IC50 results from patent US11224601B1, “Compounds that inhibits MCL-1 protein” (priority 2017, dated 2022).

The target in assay [1] is recombinant human Mcl-1 (Mcl-1/Bim interaction) (Homo sapiens (Human), UniProt Q07820). As to the kind of experiment: biochemical. To be noted: cell free Mcl-1:Bim TR-FRET; read-out: Mcl-1 HTRF IC50. The assay is classed as binding. Background: In TR-FRET formats the signal depends on donor and acceptor labels being close together.
Protocol: Cell free Mcl-1:Bim Affinity Assay (Mcl-1 HTRF)
The inhibition of the Mcl-1/Bim interaction was measured using a time-resolved fluorescence resonance energy transfer (TR-FRET) assay. The recombinant human Mcl-1 (C-terminally 6×His tagged Mcl-1 containing residues 171-327) was generated at Amgen Inc (Thousand Oaks, Calif.). A biotinylated peptide derived from human Bim (residues 51-76) was purchased from CPC Scientific (San Jose, Calif.). The TR-FRET assay was conducted in a 384-well white OptiPlate™ (PerkinElmer, Waltham, Mass.) in a total volume of 40 μL. The reaction mixture contained 0.1 nM Mcl-1(171-327), 0.05 nM biotin-Bim(51-76), 0.05 nM LANCE® Eu-W1024 Anti-6×His (PerkinElmer), 0.072 nM Streptavidin-Xlent (Cisbio, Bedford, Mass.), and serially diluted test compounds in the binding buffer of 20 mM Hepes, pH 7.5, 150 mM NaCl, 0.016 mM Brij® 35, and 1 mM dithiothreitol. Test compounds were pre-incubated with Mcl-1(171-327) and biotin-Bim (51-76) for 60 min before addition of the detection mixture (LANCE® Eu-W1024 Anti-6×His and Streptavidin-Xlent). The reaction plates were further incubated overnight and then were read on an Envision® multimode reader (PerkinElmer). Fluorescence signals were measured at 620 nm (40-nm bandwidth) and 665 nm (7.5-nm bandwidth) with a 60 μs delay after excitation at 320 nm (75-nm bandwidth). The signal ratio at 665/620 nm corresponded to the Mcl-1/Bim interaction and was used in all data analyses. The IC50 values of test compounds were determined from duplicate data by analyzing competition curves using a four-parameter sigmoidal model in GraphPad Prism (GraphPad Software, San Diego, Calif.) or in Genedata Screener® (Genedata, Basel, Switzerland).
Assay [2] has as its system OPM-2 human multiple myeloma cell line. The experiment in a line: Cell Viability Assay (OPM-2 10 FBS), CellTiter-Glo. The assay is classed as cell-based. As to conditions: Homo sapiens, OPM-2, 16 h, read-out: OPM-2 10% FBS IC50 IP (μM), OPM-2 cells, 10% FBS, 16 h, CellTiter-Glo. On the procedure: Cell Viability Assay (OPM-2 10 FBS)
The human multiple myeloma cell line, OPM-2, was cultured in complete growth medium containing RPMI 1640 and 10% fetal bovine serum (FBS). Cells were seeded into 384-well plates at 3000 cells/well density in complete growth medium containing 10% FBS, and incubated for 16 h with serially diluted test compounds in a 37° C. incubator with 5% CO2. Cell viability was tested using CellTiter-Glo® assay (Promega, Madison, Wis.) according to the manufacturer recommendations. Luminescence was determined using an EnVision® Multilabel plate reader 25 min after the addition of detection reagent. IC50 values were then calculated with Xlfit using a logistical 4-parameter fit model in GraphPad Prism (GraphPad Software, San Diego, Calif.) or in Genedata Screener® (Genedata, Basel, Switzerland).
On the technique in general: ATP-based viability assays read luminescence as a measure of living cells.

Sequence of recombinant human Mcl-1 (Mcl-1/Bim interaction) (Q07820 171-327): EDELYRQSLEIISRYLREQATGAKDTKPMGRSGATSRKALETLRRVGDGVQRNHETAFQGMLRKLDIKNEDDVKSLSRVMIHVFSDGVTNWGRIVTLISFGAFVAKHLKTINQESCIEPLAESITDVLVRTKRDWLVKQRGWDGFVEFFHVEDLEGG

The IC50 is the concentration at which inhibition is half-maximal. Take `CO[C@@]1(CN2CCN3CCN(C(C)=O)C[C@@H]3C2)/C=C/C[C@H](C)[C@@H](C)S(=O)(=O)NC(=O)c2ccc3c(c2)N(C[C@@H]2CC[C@H]21)C[C@@]1(CCCc2cc(Cl)ccc21)CO3` (stereo in doubt) [Example 214]: the IC50 in assay [1] is 0.071 nM.

In the case of `CO[C@@]1(CN2CCN3CCN(C(C)=O)C[C@@H]3C2)/C=C/C[C@H](C)[C@@H](C)S(=O)(=O)NC(=O)c2ccc3c(c2)N(C[C@@H]2CC[C@H]21)C[C@@]1(CCCc2cc(Cl)ccc21)CO3` (single isomer, unassigned) [Example 225], the IC50 in assay [1] turned out to be 0.087 nM.

`CC[C@@H]1CC/C=C/[C@@](CN2CCN3CCCC[C@@H]3C2)(OC)[C@@H]2CC[C@H]2CN2C[C@@]3(CCCc4cc(Cl)ccc43)COc3ccc(cc32)C(=O)N(C)S1(=O)=O` [Example 33, (1S,3′R,6′R,7′R,8′E,12′R)-6-chloro-12′-ethyl-7′-methoxy-14′-methyl-7′-((9aR)-octahydro-2H-pyrido[1,2-a]pyrazin-2-ylmethyl)-3,4-dihydro-2H,15′H-spiro[naphthalene-1,22′-[20]oxa[13]thia[1,14]diazatetracyclo[14.7.2.0˜3,6˜.0˜19,24˜]pentacosa[8,16,18,24]tetraen]-15′-one 13′,13′-dioxide]: the IC50 in assay [1] stood at 8.25 nM.

On to `CO[C@@]1(CN2CCN3CCN(C(C)=O)C[C@@H]3C2)/C=C/C[C@H](C)[C@@H](C)S(=O)(=O)NC(=O)c2ccc3c(c2)N(C[C@@H]2CC[C@H]21)C[C@@]1(CCCc2cc(Cl)ccc21)CO3` (single isomer, unassigned) [Example 226], for which the IC50 in assay [1] amounted to 0.057 nM.

In the case of `C[C@@H]1[C@@H](C)C/C=C/[C@@](O)(CNC(C)(C)C)[C@@H]2CC[C@H]2CN2C[C@@]3(CCCc4cc(Cl)ccc43)COc3ccc(cc32)C(=O)NS1(=O)=O` [Example 125, (1S,3′R,6′R,7′S,8′E,11′S,12′R)-7′-((tert-butylamino)methyl)-6-chloro-7′-hydroxy-11′,12′-dimethyl-3,4-dihydro-2H,15′H-spiro[naphthalene-1,22′-[20]oxa[13]thia[1,14]diazatetracyclo[14.7.2.0˜3,6˜.0˜19,24˜]pentacosa[8,16,18,24]tetraen]-15′-one 13′,13′-dioxide], the IC50 in assay [1] was found to be 6.1 nM.

Consider `C[C@@H]1[C@@H](C)C/C=C/[C@@](O)(CN2CCOC[C@@H]2Cn2ccnc2)[C@@H]2CC[C@H]2CN2C[C@@]3(CCCc4cc(Cl)ccc43)COc3ccc(cc32)C(=O)NS1(=O)=O` [Example 100, (1S,3′R,6′R,7′S,8′E,11′S,12′R)-6-chloro-7′-hydroxy-7′-(((3S)-3-(1H-imidazol-1-ylmethyl)-4-morpholinyl)methyl)-11′,12′-dimethyl-3,4-dihydro-2H,15′H-spiro[naphthalene-1,22′-[20]oxa[13]thia[1,14]diazatetracyclo[14.7.2.0˜3,6˜.0˜19,24˜]pentacosa[8,16,18,24]tetraen]-15′-one 13′,13′-dioxide], for which, in assay [1], the IC50 came out at 0.188 nM.

As to `CCO[C@]1(CN2CCN(C(C)(C)C)CC2)/C=C/C[C@H](C)[C@@H](C)S(=O)(=O)NC(=O)c2ccc3c(c2)N(C[C@@H]2CC[C@H]21)C[C@@]1(CCCc2cc(Cl)ccc21)CO3` [Example 6, (1S,3′R,6′R,7′R,8′E,11′S,12′R)-7′-((4-tert-butyl-1-piperazinyl)methyl)-6-chloro-7′-ethoxy-11′,12′-dimethyl-3,4-dihydro-2H,15′H-spiro[naphthalene-1,22′-[20]oxa[13]thia[1,14]diazatetracyclo[14.7.2.0˜3,6˜.0˜19,24˜]pentacosa[8,16,18,24]tetraen]-15′-one 13′,13′-dioxide], the IC50 in assay [1] stood at 0.079 nM.

`CO[C@@]1(CN2CCN(CC(=O)O)CC2)/C=C/C[C@H](C)[C@@H](C)S(=O)(=O)NC(=O)c2ccc3c(c2)N(C[C@@H]2CC[C@H]21)C[C@@]1(CCCc2cc(Cl)ccc21)CO3` [Example 270, (4-(((1S,3′R,6′R,7′S,8′E,11′S,12′R)-6-chloro-7′-methoxy-11′,12′-dimethyl-13′,13′-dioxido-15′-oxo-3,4-dihydro-2H-spiro[naphthalene-1,22′-[20]oxa[13]thia[1,14]diazatetracyclo[14.7.2.0˜3,6˜.0˜19,24˜]pentacosa[8,16,18,24]tetraen]-7′-yl)methyl)-1-piperazinyl)acetic acid]: the IC50 in assay [1] came to 0.035 nM.

As to `CO[C@]1(CN2CCN3CCN(C(C)=O)C[C@@H]3C2)/C=C/C[C@H](C)[C@@H](C)S(=O)(=O)NC(=O)c2ccc3c(c2)N(C[C@@H]2CC[C@H]21)C[C@@]1(CCCc2cc(Cl)ccc21)CO3` (single isomer, unassigned) [Example 229], the IC50 in assay [1] was 0.619 nM.

`CO[C@]1(CN2CCN3CCN(C(C)=O)C[C@@H]3C2)/C=C/C[C@H](C)[C@@H](C)S(=O)(=O)NC(=O)c2ccc3c(c2)N(C[C@@H]2CC[C@H]21)C[C@@]1(CCCc2cc(Cl)ccc21)CO3` (single isomer, unassigned) [Example 230]: the IC50 in assay [1] is 0.051 nM.

For `C[C@@H]1[C@@H](C)C/C=C/C(O)(CN2CCN3CCCC[C@@H]3C2)[C@@H]2CC[C@H]2CN2C[C@@]3(CCCc4cc(Cl)ccc43)COc3ccc(cc32)C(=O)NS1(=O)=O` (single isomer, unassigned) [Example 243], in assay [1], the IC50 worked out at 0.078 nM.

On to `CO[C@@]1(CN2CCN3CCN(S(C)(=O)=O)C[C@@H]3C2)/C=C/C[C@H](C)[C@@H](C)S(=O)(=O)NC(=O)c2ccc3c(c2)N(C[C@@H]2CC[C@H]21)C[C@@]1(CCCc2cc(Cl)ccc21)CO3` (stereo in doubt) [Example 228], for which the IC50 in assay [1] turned out to be 0.2 nM.

Take `C[C@@H]1[C@@H](C)C/C=C/C(O)(CN2CCN3CCCC[C@@H]3C2)[C@@H]2CC[C@H]2CN2C[C@@]3(CCCc4cc(Cl)ccc43)COc3ccc(cc32)C(=O)NS1(=O)=O` (single isomer, unassigned) [Example 242]: the IC50 in assay [1] turned out to be 0.249 nM.

In the case of `COCC[C@@H]1[C@@H](C)C/C=C/[C@@](CN2CCN(C(C)C)[C@H](C)C2)(OC)[C@@H]2CC[C@H]2CN2C[C@@]3(CCCc4cc(Cl)ccc43)COc3ccc(cc32)C(=O)NS1(=O)=O` [Example 12, (1S,3′R,6′R,7′R,8′E,11′S,12′R)-6-chloro-7′-methoxy-12′-(2-methoxyethyl)-11′-methyl-7′-(((3R)-3-methyl-4-(1-methylethyl)-1-piperazinyl)methyl)-3,4-dihydro-2H,15′H-spiro[naphthalene-1,22′-[20]oxa[13]thia[1,14]diazatetracyclo[14.7.2.0˜3,6˜.0˜19,24˜]pentacosa[8,16,18,24]tetraen]-15′-one 13′,13′-dioxide], the concentration for half-maximal inhibition (IC50) in assay [1] came to 0.072 nM.

Regarding `CCO[C@]1(CN2CCN3CCCC[C@@H]3C2)/C=C/C[C@H](C)[C@@H](CCOC)S(=O)(=O)NC(=O)c2ccc3c(c2)N(C[C@@H]2CC[C@H]21)C[C@@]1(CCCc2cc(Cl)ccc21)CO3` [Example 15, (1S,3′R,6′R,7′R,8′E,11′S,12′R)-6-chloro-7′-ethoxy-12′-(2-methoxyethyl)-11′-methyl-7′-((9aR)-octahydro-2H-pyrido[1,2-a]pyrazin-2-ylmethyl)-3,4-dihydro-2H,15′H-spiro[naphthalene-1,22′-[20]oxa[13]thia[1,14]diazatetracyclo[14.7.2.0˜3,6˜.0˜19,24˜]pentacosa[8,16,18,24]tetraen]-15′-one 13′,13′-dioxide], in assay [1], the IC50 was 0.119 nM.

For `CC(C)N(CCO)C[C@]1(O)/C=C/C[C@H](C)[C@@H](C)S(=O)(=O)NC(=O)c2ccc3c(c2)N(C[C@@H]2CC[C@H]21)C[C@@]1(CCCc2cc(Cl)ccc21)CO3` [Example 126, (1S,3′R,6′R,7′S,8′E,11′S,12′R)-6-chloro-7′-hydroxy-7′-(((2-hydroxyethyl)(1-methylethyl)amino)methyl)-11′,12′-dimethyl-3,4-dihydro-2H,15′H-spiro[naphthalene-1,22′-[20]oxa[13]thia[1,14]diazatetracyclo[14.7.2.0˜3,6˜.0˜19,24˜]pentacosa[8,16,18,24]tetraen]-15′-one 13′,13′-dioxide], the IC50 in assay [1] was determined as 0.627 nM.

For `CCO[C@]1(CN2CCN(C(C)C)CC2)/C=C/C[C@H](C)[C@@H](CCOC)S(=O)(=O)NC(=O)c2ccc3c(c2)N(C[C@@H]2CC[C@H]21)C[C@@]1(CCCc2cc(Cl)ccc21)CO3` [Example 16, (1S,3′R,6′R,7′R,8′E,11′S,12′R)-6-chloro-7′-ethoxy-12′-(2-methoxyethyl)-11′-methyl-7′-((4-(1-methylethyl)-1-piperazinyl)methyl)-3,4-dihydro-2H,15′H-spiro[naphthalene-1,22′-[20]oxa[13]thia[1,14]diazatetracyclo[14.7.2.0˜3,6˜.0˜19,24˜]pentacosa[8,16,18,24]tetraen]-15′-one 13′,13′-dioxide], the IC50 in assay [1] was found to be 0.065 nM.

As to `CO[C@@]1(CN2CCN(C3COC3)CC2)/C=C/C[C@H](C)[C@@H](C)S(=O)(=O)NC(=O)c2ccc3c(n2)N(C[C@@H]2CC[C@H]21)C[C@@]1(CCCc2cc(Cl)ccc21)CO3` [Example 19, (1S,3′R,6′R,7′S,8′E,11′S,12′R)-6-chloro-7′-methoxy-11′,12′-dimethyl-7′-((4-(3-oxetanyl)-1-piperazinyl)methyl)-3,4-dihydro-2H,15′H-spiro[naphthalene-1,22′-[20]oxa[13]thia[1,14,25]triazatetracyclo[14.7.2.0˜3,6˜.0˜19,24˜]pentacosa[8,16,18,24]tetraen]-15′-one 13′,13′-dioxide], the IC50 in assay [1] was found to be 0.125 nM.

Consider `CO[C@]1(CN2CCN3CCN(S(C)(=O)=O)C[C@@H]3C2)/C=C/C[C@H](C)[C@@H](C)S(=O)(=O)NC(=O)c2ccc3c(c2)N(C[C@@H]2CC[C@H]21)C[C@@]1(CCCc2cc(Cl)ccc21)CO3` (stereo in doubt) [Example 227], for which the IC50 in assay [2] was 0.131 µM.
